Measured values: patent US20260285850A1, “SUBSTITUTED OXAZOLIDINONES AND IMIDAZOLINONES AS HERBICIDES” (FMC CORPORATION, priority 2023, published 2026)

Legend:
Type in all cases: in vivo
[1] = test system: sedge, umbrella (small-flower umbrella sedge, Cyperus difformis); experiment: Test B flooded paddy test, visual plant response rating 0-100; conditions: 250 g ai/ha, Flood, applied to paddy water, evaluated after 13 days
In short: (§1)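 Greenhouse, 13 d. Seedlings at 2-leaf stage, pots flooded to 3 cm, compound delivered into floodwater, water level held constant. Evaluated visually relative to controls.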

[2] = test system: ducksalad (Heteranthera limosa); experiment: as above; conditions: 250 g ai/ha, Flood, applied to paddy water, evaluated after 13 days
In short: as §1

[3] = test system: barnyardgrass (Echinochloa crusgalli); experiment: as above; conditions: 250 g ai/ha, Flood, applied to paddy water, evaluated after 13 days
In short: as §1

rice (Oryza sativa) = experiment: as above; conditions: 250 g ai/ha, Flood, applied to paddy water, evaluated after 13 days
In short: as §1

[4] = test system: green foxtail (Setaria viridis); experiment: Test A postemergence application, visual injury rating 0-100; conditions: Postemergence, 10 days; for Foxtail, Green plant response rating (0 to 100 scale): 0 is no effect, 100 is complete control
In short: (§2)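 Plants in a loam and sand soil blend were treated with each test chemical, in a non-phytotoxic solvent system including surfactant, either sprayed on seeded soil before emergence or applied after emergence at the one- to two-leaf stage. Ten days later in the greenhouse, plants were compared with untreated controls and visually rated from 0 (no effect) to 100 (complete control).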

[5] = test system: oat, wild (wild oat, Avena fatua); experiment: as above; conditions: Postemergence, 10 days, 0 is no effect, 100 is complete control
In short: as §2

[6] = test system: ryegrass, Italian (italian ryegrass, Lolium multiflorum); experiment: as above; conditions: Postemergence, 10 days, 0 is no effect, 100 is complete control
In short: as §2

[7] = test system: wheat (Triticum aestivum); experiment: as above; conditions: Postemergence, 10 days, 0 is no effect, 100 is complete control
In short: as §2

[8] = test system: blackgrass (Alopecurus myosuroides); experiment: as above; conditions: Postemergence, 10 days; for Blackgrass plant response rating (0 to 100 scale): 0 is no effect, 100 is complete control
In short: as §2

kochia (Bassia scoparia) [9] = experiment: as above; conditions: Postemergence, 10 days; for Kochia plant response rating (0 to 100 scale): 0 is no effect, 100 is complete control
In short: as §2

soybean (Glycine max) [10] = experiment: as above; conditions: Postemergence, 10 days, 0 is no effect, 100 is complete control
In short: as §2

[11] = test system: ragweed (common ragweed, Ambrosia artemisiifolia); experiment: as above; conditions: Postemergence, 10 days, 0 is no effect, 100 is complete control
In short: as §2

[12] = test system: horseweed (Erigeron canadensis); experiment: as above; conditions: Postemergence, 10 days; for Horseweed plant response rating (0 to 100 scale): 0 is no effect, 100 is complete control
In short: as §2

corn (Zea mays) [13] = experiment: as above; conditions: Postemergence, 10 days, 0 is no effect, 100 is complete control
In short: as §2

[14] = test system: palmer (palmer amaranth, palmer pigweed, Amaranthus palmeri); experiment: as above; conditions: Postemergence, 10 days, 0 is no effect, 100 is complete control
In short: as §2

[15] = test system: galium (catchweed bedstraw, Galium aparine); experiment: as above; conditions: Postemergence, 10 days; for Galium plant response rating (0 to 100 scale): 0 is no effect, 100 is complete control
In short: as §2

[16] = test system: barnyardgrass (Echinochloa crus-galli); experiment: as above; conditions: Postemergence, 10 days; for Barnyardgrass plant response rating (0 to 100 scale): 0 is no effect, 100 is complete control
In short: as §2

[17] = test system: green foxtail (Setaria viridis); experiment: Test A preemergence soil spray, visual injury rating 0-100; conditions: 10 days, 0 = no effect, 100 = complete control
In short: as §2

[18] = test system: oat, wild (wild oat, Avena fatua); experiment: as above; conditions: 10 days, 0 = no effect, 100 = complete control
In short: as §2

[19] = test system: ryegrass, Italian (italian ryegrass, Lolium multiflorum); experiment: as above; conditions: 10 days, 0 = no effect, 100 = complete control
In short: as §2

[20] = test system: wheat (Triticum aestivum); experiment: as above; conditions: 500 g ai/ha, 10 days, 0 = no effect, 100 = complete control
In short: as §2

[21] = test system: blackgrass (Alopecurus myosuroides); experiment: as above; conditions: 10 days, 0 = no effect, 100 = complete control
In short: as §2

kochia (Bassia scoparia) [22] = experiment: as above; conditions: 10 days, 0 = no effect, 100 = complete control
In short: as §2

soybean (Glycine max) [23] = experiment: as above; conditions: 10 days, 0 = no effect, 100 = complete control
In short: as §2

[24] = test system: ragweed (common ragweed, Ambrosia artemisiifolia); experiment: as above; conditions: 10 days, 0 = no effect, 100 = complete control
In short: as §2

corn (Zea mays) [25] = experiment: as above; conditions: 10 days, 0 = no effect, 100 = complete control
In short: as §2

[26] = test system: barnyardgrass (Echinochloa crus-galli); experiment: as above; conditions: 10 days, 0 = no effect, 100 = complete control
In short: as §2

[27] = test system: palmer (palmer amaranth, palmer pigweed, Amaranthus palmeri); experiment: as above; conditions: 1000 g ai/ha, 10 days, 0 = no effect, 100 = complete control
In short: as §2

COC(=O)[C@H]1C[C@@H](NC(=O)C2(C)CN(c3cc(F)cc(F)c3)C(=O)O2)[C@H]2C[C@H]21 (stereo partly drawn) [Compound 176, methyl (1R,2S,4R,5S)-4-[[3-(3,5-difluorophenyl)-5-methyl-2-oxo-oxazolidine-5-carbonyl]amino]bicyclo[3.1.0]hexane-2-carboxylate]
35: Plant response rating, Rice (0 to 100 scale, 0 is no effect and 100 is complete control) (rice (Oryza sativa))
100: Ryegrass, Italian plant response rating (0 to 100 scale) ([6]; 125 g ai/ha) | Ryegrass, Italian plant response rating (0 to 100 scale) ([6]; 500 g ai/ha) | Corn plant response rating (0 to 100 scale) (corn (Zea mays) [13]; 125 g ai/ha) | Corn plant response rating (0 to 100 scale) (corn (Zea mays) [13]; 500 g ai/ha) | Galium plant response rating (0 to 100 scale) ([15]; 500 g ai/ha) | Barnyardgrass plant response rating (0 to 100 scale) ([16]; 125 g ai/ha) | Barnyardgrass plant response rating (0 to 100 scale) ([16]; 500 g ai/ha) | Foxtail, Green plant response rating (0 to 100 scale) ([17]; 500 g ai/ha) | Ryegrass, Italian plant response rating (0 to 100 scale) ([19]; 125 g ai/ha) | Ryegrass, Italian plant response rating (0 to 100 scale) ([19]; 500 g ai/ha) | Wheat plant response rating (0 to 100 scale) [20] | Blackgrass plant response rating (0 to 100 scale) ([21]; 500 g ai/ha) | Kochia plant response rating (0 to 100 scale) (kochia (Bassia scoparia) [22]; 500 g ai/ha) | Corn plant response rating (0 to 100 scale) (corn (Zea mays) [25]; 500 g ai/ha) | Barnyardgrass plant response rating (0 to 100 scale) ([26]; 125 g ai/ha) | Barnyardgrass plant response rating (0 to 100 scale) ([26]; 500 g ai/ha)
0: Horseweed plant response rating (0 to 100 scale) ([12]; 125 g ai/ha) | Ragweed plant response rating (0 to 100 scale) ([24]; 125 g ai/ha) | Ragweed plant response rating (0 to 100 scale) ([24]; 500 g ai/ha)
65: Plant response rating, Ducksalad (0 to 100 scale, 0 is no effect and 100 is complete control) [2]
90: Foxtail, Green plant response rating (0 to 100 scale) ([4]; 125 g ai/ha) | Foxtail, Green plant response rating (0 to 100 scale) ([4]; 500 g ai/ha) | Oat, Wild plant response rating (0 to 100 scale) ([5]; 125 g ai/ha) | Oat, Wild plant response rating (0 to 100 scale) ([5]; 500 g ai/ha) | Wheat plant response rating (0 to 100 scale) ([7]; 125 g ai/ha) | Wheat plant response rating (0 to 100 scale) ([7]; 500 g ai/ha) | Blackgrass plant response rating (0 to 100 scale) ([8]; 125 g ai/ha) | Blackgrass plant response rating (0 to 100 scale) ([8]; 500 g ai/ha) | Kochia plant response rating (0 to 100 scale) (kochia (Bassia scoparia) [9]; 125 g ai/ha) | Kochia plant response rating (0 to 100 scale) (kochia (Bassia scoparia) [9]; 500 g ai/ha) | Amaranth, Palmer / Pigweed, Palmer plant response rating (0 to 100 scale) ([14]; 500 g ai/ha) | Galium plant response rating (0 to 100 scale) ([15]; 125 g ai/ha) | Foxtail, Green plant response rating (0 to 100 scale) ([17]; 125 g ai/ha) | Oat, Wild plant response rating (0 to 100 scale) ([18]; 125 g ai/ha) | Oat, Wild plant response rating (0 to 100 scale) ([18]; 500 g ai/ha) | Blackgrass plant response rating (0 to 100 scale) ([21]; 125 g ai/ha) | Kochia plant response rating (0 to 100 scale) (kochia (Bassia scoparia) [22]; 125 g ai/ha)
70: Soybean plant response rating (0 to 100 scale) (soybean (Glycine max) [10]; 125 g ai/ha) | Soybean plant response rating (0 to 100 scale) (soybean (Glycine max) [10]; 500 g ai/ha) | Ragweed plant response rating (0 to 100 scale) ([11]; 125 g ai/ha) | Soybean plant response rating (0 to 100 scale) (soybean (Glycine max) [23]; 125 g ai/ha) | Corn plant response rating (0 to 100 scale) (corn (Zea mays) [25]; 125 g ai/ha)
55: Plant response rating, Barnyardgrass (0 to 100 scale, 0 is no effect and 100 is complete control) [3]
30: Horseweed plant response rating (0 to 100 scale) ([12]; 500 g ai/ha)
80: Ragweed plant response rating (0 to 100 scale) ([11]; 500 g ai/ha) | Amaranth, Palmer / Pigweed, Palmer plant response rating (0 to 100 scale) ([14]; 125 g ai/ha) | Soybean plant response rating (0 to 100 scale) (soybean (Glycine max) [23]; 500 g ai/ha)
45: Plant response rating, Sedge, Umbrella (0 to 100 scale, 0 is no effect and 100 is complete control) [1]

CC1(C(=O)NC2CC=C(C(=O)O)C2)CN(c2cc(F)cc(F)c2)C(=O)N1 (stereo not drawn) [Compound 182]
20: Plant response rating, Barnyardgrass (0 to 100 scale, 0 is no effect and 100 is complete control) [3]
90: Foxtail, Green plant response rating ([4]; 1000 g ai/ha, 0 to 100 scale) | Blackgrass plant response rating ([8]; 1000 g ai/ha, 0 to 100 scale) | Galium plant response rating ([15]; 1000 g ai/ha, 0 to 100 scale) | Barnyardgrass plant response rating ([16]; 1000 g ai/ha, 0 to 100 scale) | Ryegrass, Italian plant response rating (0 to 100 scale) ([19]; 1000 g ai/ha) | Blackgrass plant response rating (0 to 100 scale) ([21]; 1000 g ai/ha) | Kochia plant response rating (0 to 100 scale) (kochia (Bassia scoparia) [22]; 1000 g ai/ha) | Amaranth, Palmer / Pigweed, Palmer plant response rating (0 to 100 scale) [27]
60: Plant response rating, Ducksalad (0 to 100 scale, 0 is no effect and 100 is complete control) [2]
30: Ragweed plant response rating (0 to 100 scale) ([24]; 1000 g ai/ha)
70: Plant response rating, Sedge, Umbrella (0 to 100 scale, 0 is no effect and 100 is complete control) [1]
100: Foxtail, Green plant response rating (0 to 100 scale) ([17]; 1000 g ai/ha)
15: Plant response rating, Rice (0 to 100 scale, 0 is no effect and 100 is complete control) (rice (Oryza sativa))
80: Kochia plant response rating (kochia (Bassia scoparia) [9]; 1000 g ai/ha, 0 to 100 scale) | Horseweed plant response rating ([12]; 1000 g ai/ha, 0 to 100 scale) | Barnyardgrass plant response rating (0 to 100 scale) ([26]; 1000 g ai/ha)
